This series in a line: Oral selpercatinib pharmacokinetics in mice, summarised over the studies. It is filed as in vivo. Particulars: FVB (wild-type), mouse, plasma, 10 mg/kg oral, average. On the procedure:
For the 4 h transporter experiments, tail-vein blood samples were collected at 0.125, 0.25, 0.5, 1, and 2 h time points after oral administration, respectively. For the CYP3A 8 h experiments, tail-vein blood sampling was performed at 0.25, 0.5, 1, 2, and 4 h, respectively. While for elacridar inhibition experiments, tail-vein blood samples were collected at 0.125, 0.25, 0.5, and 1 h time points after oral administration, respectively. Blood sample collection was performed using microvettes containing dipotassium EDTA. At the last time point in each experiment (2, 4 or 8 h), mice were anesthetized with 5% isoflurane and blood was collected by cardiac puncture. Blood samples were collected in Eppendorf tubes containing heparin as an anticoagulant. The mice were then sacrificed by cervical dislocation and brain, liver, kidney, lung, small intestine and testis were rapidly removed. Plasma was isolated from the blood by centrifugation at 9000× g for 6 min at 4 °C, and the plasma fraction was collected and stored at −30 °C until analysis. Organs were homogenized with 4% (w/v) bovine serum albumin and stored at −30 °C until analysis.
Pharmacokinetic parameters were calculated by noncompartmental methods using the PK solver software. The area under the plasma concentration–time curve (AUC) was calculated using the trapezoidal rule, without extrapolating to infinity. […]

For the compound `COc1ccc(CN2C3CC2CN(c2ccc(-c4cc(OCC(C)(C)O)cn5ncc(C#N)c45)cn2)C3)cn1` [selpercatinib], the Cmax was about 8000 ng/mL.

What is called Cmax is the peak of the concentration-time curve.

For the origin of these results see PMC8617681 (Pharmaceuticals, 2021).
